Reference: PubChem BioAssay (NCI)
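Dose response: 5 concentrations. Exposure: 48 h. Format: 96-well plates. Endpoint: linear interpolation; highest concentration if not reached. At the GI50, growth is halved. Definition used: TGI = concentration required for complete inhibition of growth.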

What was measured:
Test in all cases: growth of human tumour cells (NCI), 48 h
[1] = system: RXF 393 renal
[2] = system: BT-549 breast
[3] = system: SR leukemia
[4] = system: RPMI-8226 leukemia
[5] = system: ACHN renal
[6] = system: SNB-19 CNS
[7] = system: PC-3 prostate
[8] = system: SW-620 colon
[9] = system: OVCAR-5 ovarian
[10] = system: U251 CNS
[11] = system: A498 renal
[12] = system: MDA-MB-231 breast
[13] = system: SK-MEL-28 melanoma
[14] = system: SF-268 CNS
[15] = system: HT29 colon
[16] = system: CCRF-CEM leukemia
[17] = system: NCI/ADR-RES ovarian
[18] = system: HS 578T breast
[19] = system: KM12 colon
[20] = system: MDA-MB-468 breast
[21] = system: A549 NSCLC
[22] = system: MALME-3M melanoma
[23] = system: HL-60(TB) leukemia
[24] = system: HCT-116 colon
[25] = system: SK-OV-3 ovarian
[26] = system: HCC-2998 colon
[27] = system: OVCAR-3 ovarian
[28] = system: LOX IMVI melanoma
[29] = system: 786-0 renal
[30] = system: MOLT-4 leukemia
[31] = system: SF-295 CNS
[32] = system: SN12C renal
[33] = system: OVCAR-4 ovarian
[34] = system: SK-MEL-5 melanoma
[35] = system: MDA-MB-435
[36] = system: T-47D breast
[37] = system: UO-31 renal
[38] = system: SK-MEL-2 melanoma
[39] = system: SNB-75 CNS
[40] = system: EKVX NSCLC
[41] = system: UACC-257 melanoma
[42] = system: K-562 leukemia
[43] = system: HOP-62 NSCLC
[44] = system: OVCAR-8 ovarian
[45] = system: CAKI-1 renal
[46] = system: HOP-92 NSCLC
[47] = system: NCI-H522 lung
[48] = system: MCF7 breast
[49] = system: SF-539 CNS
[50] = system: NCI-H460 lung
[51] = system: NCI-H23 lung
[52] = system: HCT-15 colon
[53] = system: IGROV1 ovarian
[54] = system: DU-145 prostate
[55] = system: NCI-H226 lung
[56] = system: COLO 205 colon
[57] = system: TK-10 renal
[58] = system: UACC-62 melanoma
[59] = system: M14 melanoma

`COc1cc(/C=C/C(=O)c2ccc(NC(=O)CN3C(=O)NC(C)(c4ccccc4)C3=O)cc2)cc(OC)c1OC` (stereo not drawn) gave a GI50 [1] of 3.01 µM, a TGI [1] of 12.2 µM and a GI50 [2] of 4.73 µM. For the same compound, the TGI [2] was 21.2 µM, the GI50 [3] was 1.93 µM and the TGI [3] was > 100 µM. For the same compound, the GI50 [4] was 2.32 µM, the TGI [4] was 10.2 µM and the GI50 [5] was 13.6 µM. The TGI [5] was 46.7 µM, the GI50 [6] was 14.9 µM and the TGI [6] was 32.9 µM. The GI50 [7] was 10.8 µM, the TGI [7] was > 100 µM and the GI50 [8] was 4.35 µM. It also gave a TGI [8] of 20.8 µM, a GI50 [9] of 10.5 µM and a TGI [9] of 26.7 µM. It also gave a GI50 [10] of 2.7 µM, a TGI [10] of 12.4 µM and a GI50 [11] of 31.6 µM. The TGI [11] was > 100 µM, the GI50 [12] was 4.52 µM and the TGI [12] was 25.4 µM. For the same compound, the GI50 [13] was 14.6 µM, the TGI [13] was 32.1 µM and the GI50 [14] was 8.39 µM. The TGI [14] was 90.8 µM, the GI50 [15] was 3.75 µM and the TGI [15] was 13 µM. For the same compound, the GI50 [16] was 2.9 µM, the TGI [16] was > 100 µM and the GI50 [17] was > 100 µM. The TGI [17] was > 100 µM, the GI50 [18] was 32.6 µM and the TGI [18] was > 100 µM. It also gave a GI50 [19] of 3.69 µM, a TGI [19] of 17.8 µM and a GI50 [20] of 3.2 µM. For the same compound, the TGI [20] was 12.6 µM, the GI50 [21] was 4.53 µM and the TGI [21] was > 100 µM. For the same compound, the GI50 [22] was 14.6 µM, the TGI [22] was 44.3 µM and the GI50 [23] was 2.26 µM. It also gave a TGI [23] of 8.23 µM, a GI50 [24] of 2.27 µM and a TGI [24] of 8.61 µM. The GI50 [25] was 37.4 µM, the TGI [25] was > 100 µM and the GI50 [26] was 2.92 µM. For the same compound, the TGI [26] was 8.97 µM, the GI50 [27] was 4.16 µM and the TGI [27] was 21 µM. It also gave a GI50 [28] of 3.09 µM, a TGI [28] of 13.2 µM and a GI50 [29] of 8.43 µM. For the same compound, the TGI [29] was 23.3 µM, the GI50 [30] was 2.57 µM and the TGI [30] was 8.25 µM. It also gave a GI50 [31] of 14.3 µM, a TGI [31] of 31.8 µM and a GI50 [32] of 12.9 µM. For the same compound, the TGI [32] was 42 µM, the GI50 [33] was 13.4 µM and the TGI [33] was > 100 µM. The GI50 [34] was 9.99 µM, the TGI [34] was 21.5 µM and the GI50 [35] was 3.64 µM. It also gave a TGI [35] of 47.9 µM, a GI50 [36] of 6.56 µM and a TGI [36] of 69.9 µM. It also gave a GI50 [37] of 17.3 µM, a TGI [37] of 74.1 µM and a GI50 [38] of 17.5 µM. For the same compound, the TGI [38] was 40.7 µM, the GI50 [39] was 5.33 µM and the TGI [39] was 84.5 µM. The GI50 [40] was 12.9 µM, the TGI [40] was 75.8 µM and the GI50 [41] was 11.6 µM. For the same compound, the TGI [41] was 28 µM, the GI50 [42] was 3.16 µM and the TGI [42] was > 100 µM. For the same compound, the GI50 [43] was 15.8 µM, the TGI [43] was 93.4 µM and the GI50 [44] was 5.03 µM. The TGI [44] was > 100 µM, the GI50 [45] was 8.66 µM and the TGI [45] was > 100 µM. For the same compound, the GI50 [46] was 34 µM, the TGI [46] was > 100 µM and the GI50 [47] was 9 µM. The TGI [47] was 23.7 µM, the GI50 [48] was 3.06 µM and the TGI [48] was 13.5 µM. For the same compound, the GI50 [49] was 2.23 µM, the TGI [49] was 5.69 µM and the GI50 [50] was 3.93 µM. It also gave a TGI [50] of 22.7 µM, a GI50 [51] of 4.61 µM and a TGI [51] of 19.4 µM. The GI50 [52] was 11.7 µM, the TGI [52] was 48.9 µM and the GI50 [53] was 4.85 µM. For the same compound, the TGI [53] was 25.2 µM, the GI50 [54] was 3.66 µM and the TGI [54] was 15 µM. For the same compound, the GI50 [55] was 19.3 µM, the TGI [55] was > 100 µM and the GI50 [56] was 13.7 µM. For the same compound, the TGI [56] was 30.4 µM, the GI50 [57] was 46.6 µM and the TGI [57] was > 100 µM. The GI50 [58] was 11.7 µM, the TGI [58] was 24.8 µM and the GI50 [59] was 6.67 µM. For the same compound, the TGI [59] was 22.9 µM.
